{"source": "paper PMC3974779", "about": "“Pterostilbene-Isothiocyanate Conjugate Suppresses Growth of Prostate Cancer Cells Irrespective of Androgen Receptor Status” (PLoS ONE, 2014)", "assay_type_in_all_cases": "cell-based, human", "key": {"p-Akt in LNCaP cells": {"test_system": "p-Akt in LNCaP cells", "assay": "Immunoblot of Akt phosphorylation", "settings": "below 20 μM, 24 h", "method": "(§1) The whole-cell lysates were prepared as described previously in immunoprecipitation (IP) buffer containing 50 mM Tris-HCl (pH 8.0), 150 mM NaCl, 5 mM EDTA, and 1% Triton X-100. Protein aliquots of 500 μg were then incubated overnight at 4°C using 2 μg of antibody directed against AR. The Protein A-Cl Agarose beads were then added and further incubated for 6 h at 4°C. The immunoprecipitates were washed four times with the IP buffer and the immunocomplexes were recovered by boiling in SDS sample buffer. Finally the western blot was carried out using anti-AR, anti-SRC-1 and anti-GRIP-1 antibodies (Santa Cruz, CA, USA). For western blot analysis, the cell lysates were prepared after harvesting them in lysis buffer. About 40 μg of total protein was electrophoresed by 12% SDS-PAGE, and the western blotting was carried out using standard protocol. In brief, the analyzed proteins were transferred to nylon membranes. The blots were then blocked with TBST buffer (20 mM Tris-Cl, pH 7.5, 150 mM sodium chloride, 0.05% Tween-20) containing 5% skim milk powder. They were then washed with TBST buffer and incubated overnight at 4°C with the same buffer containing appropriate amounts of primary antibodies: caspase-3, Bax, Bcl-2, Akt, p-Akt, ERK, p-ERK, AR, SRC-1, GRIP-1 (1∶500) and β-actin (1∶1000). The blots were then washed and incubated with anti-rabbit secondary antibody (1∶20,000) conjugated with horseradish peroxidase (HRP). Color development was performed in the dark by using an ECL kit (Amersham, GE Healthcare, Buckinghamshire, UK). The developed blots were subjected to densitometric analysis by ImageJ 1.43 software (NIH, USA) using β-actin as internal control.\n(§2) The siRNAs against human Akt and ERK and control siRNA were purchased commercially from Santa Cruz Biotechnology (USA). The LNCaP and PC-3 PCa cells were transfected with siRNAs (at a final concentration of 100 nM) using polyfect transfection reagent (Qiagen, CA, USA) according to manufacturer’s instructions. After 24 h of transfection, the cells were washed properly and replaced with fresh medium. The cells were then treated with 20 μM conjugate for 24 h, and finally protein lysates were prepared on completion of treatment. The levels of p-Akt, p-ERK and cleaved caspase-3 expressions were detected by Western blot analysis."}, "p-Akt in PC-3 cells": {"test_system": "p-Akt in PC-3 cells", "assay": "Immunoblot of Akt phosphorylation", "settings": "24 h", "method": "as §1, §2"}, "p-ERK in LNCaP cells": {"test_system": "p-ERK in LNCaP cells", "assay": "Immunoblot of ERK phosphorylation", "settings": "highest dose, 24 h", "method": "as §1, with “The blots were then washed and incubated with anti-rabbit secondary antibody (1∶20,000) conjugated with horseradish peroxidase (HRP). Color development was performed in the dark by using an ECL kit (Amersham, GE Healthcare, Buckinghamshire, UK). The developed blots were subjected to densitometric analysis by ImageJ 1.43 software (NIH, USA) using β-actin as internal control.” left out"}}, "data": [{"smiles": "COc1cc(/C=C/c2ccc(O)c(/C=N/NC(N)=S)c2)cc(OC)c1", "note": "[conjugate, Pterostilbene-isothiocyanate conjugate]", "values": [{"measurement": "effect on level of p-Akt", "setting": "p-Akt in LNCaP cells", "value": "negligible effects"}, {"measurement": "decrease in level of p-Akt", "setting": "p-Akt in PC-3 cells; PC-3, 20 μM", "value": "~2.2", "unit": "folds"}, {"measurement": "decrease in level of p-Akt", "setting": "p-Akt in PC-3 cells; PC-3, 40 μM", "value": "~4.4", "unit": "folds"}, {"measurement": "inhibition of p-ERK", "setting": "p-ERK in LNCaP cells", "value": "almost completely inhibited"}]}]}
